Measurements as given in patent publication US9200333B2, “Methods for identifying modulators of murine double minute 2” (Indiana University Research and Technology Corporation, priority 2012, dated 2015).

Legend:
Format in all cases: cell-based, human
[1] = test system: Mdm2 protein levels in MCF7 cells; assay: Western blot of endogenous Mdm2 protein levels in MCF7 cells
Description: (§1) Mammalian cells (H1299 and MCF7) were cultured at 37° C. in a humidified incubator with 5% CO2 in DMEM high glucose plus 10% FBS. Transfection in H1299 was performed using a calcium phosphate method and in MCF7 using Lipofectamine Plus reagent (Invitrogen). Equal amounts of DNA were transfected into cells and incubated for the indicated times prior to analysis. PPI (Calbiochem) and MLN4924 (LifeSensors) were used at concentrations provided. Site-directed mutagenesis was performed by PCR, and constructs were sequenced in their entirety.
(§2) Whole cell lysates (Lysates) were prepared in Nonidet P-40 lysis buffer (25 mM Tris, pH 8.0, 150 mM NaCl, 0.5 mM EDTA, 0.5 mM EGTA, 1% Nonidet P-40, 1 mM sodium orthovanadate, 1 mM DTT) and supplemented with protease inhibitor mixture set III (Calbiochem) at 1:100 and incubated on ice for 30 min. Debris was collected by centrifugation, and equal amounts of supernatant protein were determined by BioRad assay. Protein was fractionated by SDS-PAGE and transferred to PVDF membrane (Amersham Biosciences). Antibodies used for Western blotting were: Mdm2 (SMP14, 2Al0, and 4Bl1), c-Src (B-12; Santa Cruz), p53 (DO-1), tubulin (TU-02), GAPDH (8C2), and β-actin (C4; Santa Cruz Biotechnology); phosphotyrosine (4010; Upstate); phospho-c-Src Tyr^416 (Cell Signaling); Myc (9E10) and HA (12CA5) Immunoprecipitation from lysates was performed using 500 ng of either SMP14 for Mdm2, HA (12CA5), p53 (D01) or c-Src (B-12) antibody overnight at 4° C. in 700 μl of PBS. Protein A/G Plus Agarose (Santa Cruz Biotechnology) was added to the mixture and incubated an additional 2 hrs at 4° C., precipitates were washed three times in PBS, and samples were resuspended in SDS loading buffer and boiled for 5 min.
To examine how c-Src regulates endogenous Mdm2 protein levels, c-Src was activated through epidermal growth factor (EGF) stimulation of MCF7 cells. MCF7 cells were serum-starved for 48 hrs and then treated with 200 ng/mL of EGF for a time course of 2 hrs. […]

[2] = test system: p53 levels in MCF7 cells; assay: Western blot of endogenous p53 levels in MCF7 cells
Description: as §2
To examine endogenous p53 levels, MCF 7 cells were transfected with increasing amounts of CA-Src. […]

[3] = test system: neddylating activity of Mdm2 (neddylated p53) in H1299 cells; assay: Western blot of neddylated p53 in H1299 cells transfected with p53, Mdm2 and CA-Src; settings: vs DMSO, FIG. 29
Description: as §1
H1299 cells were transfected with His-Ubiquitin or His-Nedd8 and other plasmids as indicated using calcium phosphate method. 48 hours after transfection, cells were lysed in 1 ml of 6M guanidinium-HCl, 0.1M Na2HPO4/NaH2PO4, 0.01M Tris-HCl pH 8.0 plus 5 mM Imidazole and 10 mM β-mercaptoethanol. After sonication, the lysates were mixed with 30 μl of Ni^2+-NTA-agarose beads (Qiagen) prewashed with lysis buffer and incubated for 2 hours at room temperature. The beads were successively washed and eluted.
Based on transient transfection data that supported its role as a neddylating enzyme, the affect of pharmacological inhibition of neddylating activity of Mdm2 using MLN4924 was determined.

[4] = test system: p53 activity (PG13-Luc) in H1299 cells; assay: PG13-Luc luciferase assay in H1299 cells transfected with p53, Mdm2 and CA-Src; settings: H1299 cells transfected with PG-13-luc, FIG. 32
Description: (§3) For the luciferase assays, H1299 and MCF7 cells were transfected with PG13-Luc, Mdm2-P2-Luc, Maspin-Luc or Mutant Maspin-Luc (MT1) along with Myc-LacZ for determination of […] activity, using the calcium phosphate method. Reporter activity was normalized to […] activity. Data generated were done in triplicate and standard deviation was calculated from the mean.
H1299 cells were transfected with the PG-13-luc, p53, Mdm2 and CA-Src. Reduction in p53 activity by Mdm2 was further increased in the presence of c-Src.

[5] = test system: endogenous Mdm2 tyrosine phosphorylation in MCF7 cells; assay: Immunoprecipitation of Mdm2 from MCF7 extracts and immunoblot for phosphorylated tyrosine; settings: MCF7 cells pretreated 16 hrs; FIG. 8
Description: as §1
Whole cell lysates (Lysates) were prepared in Nonidet P-40 lysis buffer (25 mM Tris, pH 8.0, 150 mM NaCl, 0.5 mM EDTA, 0.5 mM EGTA, 1% Nonidet P-40, 1 mM sodium orthovanadate, 1 mM DTT) and supplemented with protease inhibitor mixture set III (Calbiochem) at 1:100 and incubated on ice for 30 min. Debris was collected by centrifugation, and equal amounts of supernatant protein were determined by BioRad assay. Protein was fractionated by SDS-PAGE and transferred to PVDF membrane (Amersham Biosciences). […]
First, H1299 cells were transfected with HA-tagged Mdm2 (HA-Mdm2) with either constitutively active c-Src (CA-Src) or a kinase dead Src (KD-Src). […] Along with overexpression, whether c-Src could phosphorylate endogenous Mdm2 was determined. […]

[6] = test system: mdm2 P2 promoter; assay: mdm2-P2-Luc luciferase reporter assay in MCF7 cells; settings: vs DMSO, FIG. 16
Description: as §3
To determine whether c-Src altered mdm2 gene expression, a luciferase reporter assay was conducted in which the mdm2 P2 promoter was attached to luciferase.

[7] = test system: endogenous neddylated p53 in MCF7 cells; assay: Immunoprecipitation of p53 from MCF7 cells and anti-Nedd8 immunoblot; settings: vs DMSO, FIG. 30
Description: as §2
To determine the role of c-Src on endogenous neddylation of p53, the c-Src inhibitor PP1 was used to treat MCF7 cells. MCF7 cells were treated with PP1, and p53 was immunoprecipitated from cell extracts. […]

[8] = test system: p53 activity on the maspin promoter in MCF7 cells; assay: Maspin-Luc luciferase assay in MCF7 cells; settings: 16 hrs, FIG. 35
Description: as §3
To ensure that the decrease seen on the maspin promoter was due to c-Src phosphorylation of Mdm2, another luciferase assay was done using the Y281-302F Mdm2 and CA-Src. […] For further insight on how endogenous neddylation of p53 would affect maspin level, MCF7 cells were transfected with the maspin-Luc construct or a mutant maspin-Luc (MT1) that is unresponsive to p53, to ensure luciferase activity was dependent on p53. c-Src was then inhibited for 16 hrs using PP1 and a luciferase assay was performed. […] These findings provide insight into the regulation of c-Src-induced neddylation of p53. This neddylation event is responsible for the further reduction in p53 activity on both the PG13-Luc and on its ability to activate the tumor suppressor maspin (FIG. 37).

[9] = test system: maspin protein in MCF7 cells; assay: Western blot of Maspin in MCF7 cells; settings: vs DMSO, FIG. 36
Description: as §2
To ensure that the decrease seen on the maspin promoter was due to c-Src phosphorylation of Mdm2, another luciferase assay was done using the Y281-302F Mdm2 and CA-Src. […]

## EGF: epidermal growth factor used to activate c-Src in MCF7 cells
[1]; MCF7 cells serum-starved 48 hrs, 200 ng/mL, time course of 2 hrs, FIG. 12
  Mdm2 protein levels on EGF stimulation: increase of Mdm2 protein levels
[2]; MCF7 cells serum starved 48 hours, 1-hour time course, FIG. 23
  p53 levels on EGF stimulation: increase in p53

## NS(=O)(=O)OC[C@@H]1C[C@@H](n2ccc3c(N[C@H]4CCc5ccccc54)ncnc32)C[C@@H]1O [MLN4924]
[3]
  neddylated p53: loss of neddylated p53
[4]
  p53 activity (PG13-Luc): restored p53 activity to levels observed with Mdm2 alone

## Cc1ccc(-c2nn(C(C)(C)C)c3ncnc(N)c23)cc1 [PP1]
[5]
  endogenous Mdm2 tyrosine phosphorylation: loss of endogenous Mdm2 tyrosine phosphorylation
[1]; MCF7 cells, increasing concentrations (1, 5, 10, 15, 20 μM), FIG. 14
  Mdm2 levels: dose-dependent decrease in Mdm2 levels
[1]; serum starved MCF7 cells pre-treated 1 hr before addition of EGF, FIG. 13
  Mdm2 protein level after EGF: no apparent increase in Mdm2
[6]
  mdm2 promoter luciferase activity: No difference
[2]; MCF7 cells, increasing concentrations (1, 5, 10, 15, 20 μM), FIG. 24
  p53 levels: dose dependent decrease in p53 levels
[7]
  endogenous neddylated p53: decrease in endogenous neddylated p53
[8]
  p53 activity on maspin-Luc construct: increase of p53 activity on the maspin-Luc construct
[9]
  maspin protein level: maspin protein was increased
